“Also recorded” adds a separate entry of the source.
Tests used:
[1] = system: P-gp overexpressing prostate cancer cell line, DU145TXR; assay: MTT cell viability assay, resensitization to paclitaxel; type: cell-based, human; conditions: for Fold vs PTX + 29: vs paclitaxel + parental compound 29; for Fold vs PTX (fold increased sensitivity): vs paclitaxel alone; for Resensitization of DU145TXR to paclitaxel / MDR reversal (in words): 3 to 10 μM inhibitor
Source text: The Group 1 ChemGen/docking routine produced variants of P-gp inhibitor 29 resensitize a multidrug resistant, P-gp overexpressing prostate cancer cell line to paclitaxel. The mitochondrial reduction potential of cells is often used as an indicator for cell viability using MTT assays^4. Using these assays it was observed that the five Group 1 derivatives of 29 predicted through the ChemGen/docking routine and synthesized here, 216, 227, 231, 541 and 551, re-sensitized the P-gp overexpressing prostate cancer cell line, DU145TXR^33, to the chemotherapeutic, paclitaxel (FIG. 12, showing results of assays at concentrations of 3 μM, 5 μM, 7 μM, and 10 μM).
Cytotoxicity of the chemotherapeutic, paclitaxel (PTX) to P-gp overexpressing prostate cancer cells, DU145TXR, was determined in the absence and presence of the ChemGen designed 29-variants, 216, 227, 231, 541 and 551. For each experimental compound IC50 values of PTX alone or in the presence of inhibitors, fold improvement of PTX sensitivity in the presence of inhibitor, and fold improvement of PTX sensitivity by variants compared to parental compound 29 are given.
Effects of Group 2 variants on the paclitaxel sensitivity of P-glycoprotein overexpressing prostate cancer cells, DU145TXR. MTT assays were again used to assess the efficacy of the new structural 29-variants on sensitizing the chemotherapy-resistant prostate cancer cell line, DU145TXR, to paclitaxel, at concentrations of 3 μM, 5 μM, 7 μM, and 10 μM as shown in FIG. 15 and Table 4.
MTT cell viability assay. Cells were trypsinized from monolayers and seeded with 3000 cells in 150 μL of complete medium in a 96 well plate. After 24 hours, cells were treated for 48 hours with paclitaxel (Acros Organics, NJ) and/or P-gp inhibitory compounds dissolved in DMSO, or DMSO controls. All additions were diluted into complete medium. After 48 hours of treatment, MTT assays were performed as described^41 using 5 mg/mL of MTT (Acros Organics, NJ) solution prepared in PBS (137 mM NaCl, 2.7 mM KCl, 10 mM Na2HPO4, 1.8 mM KH2PO4, pH 7.4). After 4 hours of incubation with MTT, the media was removed and the formazan crystals were dissolved in 100 μL of DMSO. The absorbance at 570 nm was then measured using a BioTek Cytation 5 imaging multi-mode reader (Bio-Tek, Winooski, Vt.). Percent viability was calculated using DMSO treated cells as representative for 100% viability, according to Equation 1. Background absorbance was determined using MTT and complete medium without cells and subtracted from all the test values. Equation 1:
The results were plotted as the mean with standard deviation (SD) of eight replicates per concentration from at least two independent experiments with n=8. The graphical representations and IC50 values were determined using four parameter variable slope non-linear regression, using the following equation: Y=bottom+(top-bottom)/(1+10^((log IC50−X)*Hill Slope) (GraphPad Prism™, La Jolla Calif., USA, Version 6.05). The reported “fold sensitization” was calculated as follows, per Equation 2: […]

[2] = target: T1, Normal Human MDR1 P-glycoprotein (Homo sapiens, UniProt P08183); assay: ATPase activity assay (basal and verapamil-stimulated), P-gp in nanodiscs; type: biochemical; conditions: for Effect on stimulated ATPase / Stimulated ATPase: in the presence of verapamil; for Stimulated ATPase / Basal ATPase: ± standard deviation; for Effect on basal ATPase / Basal ATPase: no added transport substrate
T1 construct: made in house; host or cells: Pichia pastoris (P-gp); E. coli BL21 (DE3) (MSP1E3D1)
T1 sequence (P08183 whole entry): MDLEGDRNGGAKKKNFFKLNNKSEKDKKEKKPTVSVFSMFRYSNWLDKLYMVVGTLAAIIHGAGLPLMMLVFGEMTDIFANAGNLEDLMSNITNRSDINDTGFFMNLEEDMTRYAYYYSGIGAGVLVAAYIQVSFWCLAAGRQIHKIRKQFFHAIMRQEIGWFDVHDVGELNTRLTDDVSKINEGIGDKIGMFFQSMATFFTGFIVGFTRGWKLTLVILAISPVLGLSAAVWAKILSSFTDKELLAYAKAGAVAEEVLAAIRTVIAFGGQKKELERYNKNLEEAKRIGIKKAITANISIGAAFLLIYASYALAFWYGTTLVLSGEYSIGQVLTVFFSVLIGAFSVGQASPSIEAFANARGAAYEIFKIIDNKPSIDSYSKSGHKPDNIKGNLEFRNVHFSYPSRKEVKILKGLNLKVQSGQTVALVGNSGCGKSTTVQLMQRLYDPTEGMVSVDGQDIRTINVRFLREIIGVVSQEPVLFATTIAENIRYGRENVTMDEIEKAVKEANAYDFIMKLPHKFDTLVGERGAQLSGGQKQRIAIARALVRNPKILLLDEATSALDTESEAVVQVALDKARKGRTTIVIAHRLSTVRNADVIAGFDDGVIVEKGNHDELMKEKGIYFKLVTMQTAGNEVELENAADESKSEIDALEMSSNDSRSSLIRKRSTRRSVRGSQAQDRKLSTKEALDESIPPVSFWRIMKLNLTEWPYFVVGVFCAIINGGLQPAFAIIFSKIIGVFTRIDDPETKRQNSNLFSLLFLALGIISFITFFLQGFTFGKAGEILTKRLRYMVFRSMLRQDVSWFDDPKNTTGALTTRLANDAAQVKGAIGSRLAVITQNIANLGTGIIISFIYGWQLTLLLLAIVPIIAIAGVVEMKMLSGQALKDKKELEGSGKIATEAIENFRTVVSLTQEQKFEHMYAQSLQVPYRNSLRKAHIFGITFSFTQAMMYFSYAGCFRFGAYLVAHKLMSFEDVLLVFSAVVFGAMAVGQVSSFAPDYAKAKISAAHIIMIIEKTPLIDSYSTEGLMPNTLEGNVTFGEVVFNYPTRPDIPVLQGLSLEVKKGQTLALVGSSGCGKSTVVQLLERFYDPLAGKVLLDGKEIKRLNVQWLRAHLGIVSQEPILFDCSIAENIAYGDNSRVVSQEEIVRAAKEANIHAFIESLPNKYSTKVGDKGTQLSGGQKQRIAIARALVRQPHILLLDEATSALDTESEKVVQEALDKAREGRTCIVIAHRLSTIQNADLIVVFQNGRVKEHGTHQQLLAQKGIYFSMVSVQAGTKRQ
Source text: To assess whether the observed discrepancies of compounds stimulating basal P-gp ATPase activity but not being transport substrates of the human pump in the cell culture assessments were due to the fact that these biochemical assays used a cysteineless variant of the mouse MDR3 P-glycoprotein, the experiments were repeated using normal human MDR1 P-gp. In order to stabilize the human protein for the activity assays, the protein was assembled into membrane nanodiscs as described herein.
(§1) P-glycoprotein Purification. Cysteine-less MDR3 and the human normal MDR1 P-glycoprotein was recombinantly expressed in the yeast Pichia pastoris essentially as in^45, 46 and used for assaying ATP hydrolysis and ATP binding to the protein in the presence of the 29-variants. Purification of the protein was performed as described^49 with small modifications resulting in highly enriched P-gp in mixed micelles containing dodecyl maltoside (DDM) and lysophosphatidyl choline^26.
Nanodisc assembly. Human P-gp in mixed detergent micelles obtained during protein purification, was reconstituted into nanodiscsas described in references^73, 74 with small modifications. […] The detergent was removed with Bio-Beads™ SM-2 Adsorbent Media (BioRad). Ni-NTA Agarose (Qiagen) chromatography was used to purify P-gp reconstituted nanodiscs using 6 bed volumes of start buffer (20% (v/v) glycerol, 50 mM Tris-CL pH 7.5 at 4° C., 50 mM NaCl), and 5 bed volumes of elution buffer (20% (v/v) glycerol, 50 mM Tris-Cl pH 7.5 at 4° C., 50 mM NaCl, 300 mM imidazole).
(§2) ATPase Activity Assays. ATP hydrolysis activity was measured using a coupled enzyme assay^72 as modified in reference^26.

[3] = target: T2, Cysteineless Mouse MDR3 P-glycoprotein (Mus musculus, UniProt P21447, C1070A/C1121A/C1223A/C133A/C427A/C638A/C669A/C713A/C952A); assay: ATPase activity assay (basal and verapamil-stimulated), purified P-gp in mixed micelles; type: biochemical; conditions: for Effect on stimulated ATPase / Stimulated ATPase: in the presence of verapamil; for Stimulated ATPase / Basal ATPase: ± standard deviation; for Effect on basal ATPase / Stimulation of basal ATPase / Basal ATPase: no added transport substrate
T2 construct: made in house; host or cells: Pichia pastoris
T2 sequence (P21447 whole entry C133A/C427A/C638A/C669A/C713A/C952A/C1070A/C1121A/C1223A): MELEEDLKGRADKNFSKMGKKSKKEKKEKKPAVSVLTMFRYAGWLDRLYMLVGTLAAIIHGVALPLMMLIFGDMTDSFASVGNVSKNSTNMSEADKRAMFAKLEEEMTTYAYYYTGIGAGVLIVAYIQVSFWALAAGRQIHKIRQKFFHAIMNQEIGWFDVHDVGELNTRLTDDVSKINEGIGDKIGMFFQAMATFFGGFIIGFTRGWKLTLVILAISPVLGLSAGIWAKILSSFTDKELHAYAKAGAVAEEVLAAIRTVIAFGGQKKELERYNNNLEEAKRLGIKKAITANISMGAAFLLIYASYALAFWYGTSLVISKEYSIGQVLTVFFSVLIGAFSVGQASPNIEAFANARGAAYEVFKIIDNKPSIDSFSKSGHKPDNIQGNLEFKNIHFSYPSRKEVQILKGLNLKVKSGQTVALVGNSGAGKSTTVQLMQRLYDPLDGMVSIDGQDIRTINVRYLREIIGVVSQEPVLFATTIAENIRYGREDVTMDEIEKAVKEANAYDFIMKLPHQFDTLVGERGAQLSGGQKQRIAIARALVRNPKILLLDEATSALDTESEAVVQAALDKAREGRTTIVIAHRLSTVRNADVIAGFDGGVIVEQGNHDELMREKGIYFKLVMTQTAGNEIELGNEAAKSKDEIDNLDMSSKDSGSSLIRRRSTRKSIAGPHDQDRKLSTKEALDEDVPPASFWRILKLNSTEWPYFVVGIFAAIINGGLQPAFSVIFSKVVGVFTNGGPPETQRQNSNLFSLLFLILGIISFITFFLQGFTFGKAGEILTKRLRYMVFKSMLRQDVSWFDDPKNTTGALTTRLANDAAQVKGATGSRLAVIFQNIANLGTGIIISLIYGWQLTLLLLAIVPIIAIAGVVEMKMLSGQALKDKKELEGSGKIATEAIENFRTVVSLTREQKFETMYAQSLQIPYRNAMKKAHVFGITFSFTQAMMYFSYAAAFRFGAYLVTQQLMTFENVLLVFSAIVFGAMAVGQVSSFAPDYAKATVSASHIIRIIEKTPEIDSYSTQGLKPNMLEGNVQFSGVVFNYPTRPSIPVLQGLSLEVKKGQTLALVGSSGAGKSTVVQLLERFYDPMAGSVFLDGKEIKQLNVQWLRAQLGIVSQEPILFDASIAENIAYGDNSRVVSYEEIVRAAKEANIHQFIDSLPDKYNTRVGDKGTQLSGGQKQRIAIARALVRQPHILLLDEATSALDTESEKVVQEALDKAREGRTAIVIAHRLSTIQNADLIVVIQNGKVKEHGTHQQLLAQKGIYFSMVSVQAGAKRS
Experimental: Evaluation of mode of inhibition of P-glycoprotein by Group 1 and Group 2 variants of compound 29. To assess the mode of inhibition of P-gp by the novel variants of P-gp inhibitor 29, ATP hydrolysis by P-gp was evaluated in the presence or absence of the variants. […] Murine P-gp (MDR3) expressed in Pichia pastoris that had all naturally occurring cysteines replaced with alanine, was used^45, 46. It is widely assumed that the ATP hydrolytic rate of P-gp is stimulated in the presence of transport substrates when compared to ATP hydrolysis in the absence of transport substrates. Assays comparing these rates can therefore be useful not only in identifying inhibitors of P-gp catalyzed ATP hydrolysis, but also to potentially infer whether a compound might be a transport substrate if basal ATPase rates are stimulated by the addition of a compound.
as §1, §2

SMILES	Fold vs PTX + 29 ([1]; 3 μM inhibitor)	Effect on stimulated ATPase [2]	Stimulated ATPase [2]	Effect on basal ATPase [2]	Basal ATPase [2]	Stimulated ATPase [3]	Effect on basal ATPase [3]	Stimulation of basal ATPase [3]	Basal ATPase [3]	other results
COc1cc(NC(=O)CSCC(=O)Nc2cc(-c3cc(C)c(C)cc3C)nn2-c2ccccc2)cc(OC)c1OC [29-238, N-[1-phenyl-3-(2,4,5-trimethylphenyl)-1H-pyrazol-5-yl]-2-({[(3,4,5-trimethoxyphenyl)carbamoyl]methyl}sulfanyl)acetamide]	3.4 fold	inhibitor	61 ± 7 % of DMSO	none	89 ± 7 % of DMSO	194 ± 22 % of DMSO	stimulator	~10 fold	1143 ± 46 % of DMSO	Fold vs PTX + 29 ([1]; 5 μM inhibitor): around 100 fold; Fold vs PTX (fold increased sensitivity) ([1]; 5 μM inhibitor): about a thousand-fold; Fold vs PTX + 29 ([1]; 7 μM inhibitor): around 100 fold; Fold vs PTX + 29 ([1]; 10 μM inhibitor): 300 fold; Resensitization of DU145TXR to paclitaxel / MDR reversal (in words) ([1]; listed as 238): increased paclitaxel toxicities to the greatest extents; also recorded: vastly outperformed compounds 278, 280 and 286; also recorded: strongest reversal of MDR; Effect on stimulated ATPase ([3]; listed as 238): about two-fold; Effect on stimulated ATPase ([3]; listed as SMU29-238): stimulator
Cc1cc(C)c(-c2cc(NC(=O)CSCC(=O)Nc3ccc4ncsc4c3)n(-c3ccccc3)n2)cc1C [29-255, 2-({[(1,3-benzothiazol-6-yl)carbamoyl]methyl}sulfanyl)-N-[1-phenyl-3-(2,4,5 trimethylphenyl)-1H-pyrazol-5-yl]acetamide]	comparable to 238 at 3 μM	inhibitor	59 ± 6 % of DMSO	none	84 ± 9 % of DMSO	123 ± 15 % of DMSO	stimulator	~3 fold	355 ± 7 % of DMSO	Fold vs PTX (fold increased sensitivity) ([1]; 7 μM inhibitor): about a thousand-fold; Resensitization of DU145TXR to paclitaxel / MDR reversal (in words) ([1]; listed as 255): increased paclitaxel toxicities to the greatest extents; also recorded: vastly outperformed compounds 278, 280 and 286; also recorded: reversed MDR; Effect on stimulated ATPase ([3]; listed as SMU29-255): none
Cc1cc(C)c(-c2cc(NC(=O)CSCC(=O)NC34CC5CC(CC(C5)C3)C4)n(-c3ccccc3)n2)cc1C [29-278, 2-({[(adamantan-1-yl)carbamoyl]methyl}sulfanyl)-N-[1-phenyl-3-(2,4,5-trimethylphenyl)-1H-pyrazol-5-yl]acetamide]	–	inhibitor	63 ± 6 % of DMSO	inhibitor	74 ± 6 % of DMSO	41 ± 7 % of DMSO	–	–	78 ± 4 % of DMSO	Resensitization of DU145TXR to paclitaxel / MDR reversal (in words) ([1]; listed as 278): affected MDR relatively weakly; Effect on stimulated ATPase ([3]; listed as 278): inhibited verapamil-stimulated ATPase activity; Effect on stimulated ATPase ([3]; listed as SMU29-278): inhibitor; Effect on basal ATPase ([3]; listed as 278): inhibited; Effect on basal ATPase ([3]; listed as SMU29-278): inhibitor
Cc1cc(C)c(-c2cc(NC(=O)CSCC(=O)NCc3ccc(F)cc3)n(-c3ccccc3)n2)cc1C [29-286]	–	inhibitor	59 ± 4 % of DMSO	none	95 ± 3 % of DMSO	98 ± 2 % of DMSO	–	–	143 ± 32 % of DMSO	Resensitization of DU145TXR to paclitaxel / MDR reversal (in words) ([1]; listed as 286): little effect; Effect on stimulated ATPase ([3]; listed as 286): no significant effect; also recorded: little effect; Effect on stimulated ATPase ([3]; listed as SMU29-286): none; Effect on basal ATPase ([3]; listed as 286): only marginally or with no statistical significance; Effect on basal ATPase ([3]; listed as SMU29-286): none
Cc1cc(C)c(-c2cc(NC(=O)CSc3nnc4c(n3)[nH]c3ccccc34)n(-c3ccccc3)n2)cc1C [29-541, 2-((5H-[1,2,4]triazino[5,6-b]indol-3-yl)thio)-N-(1-phenyl-3-(2,4,5-trimethylphenyl)-1H-pyrazol-5-yl)acetamide]	–	inhibitor	66 ± 6 % of DMSO	none	87 ± 9 % of DMSO	68 ± 7 % of DMSO	–	–	101 ± 12 % of DMSO	Resensitization of DU145TXR to paclitaxel / MDR reversal (in words) ([1]; listed as 541): re-sensitized; also recorded: more effective than 29 at all concentrations tested; Effect on stimulated ATPase ([3]; listed as 541): inhibited activity similar to parental compound 29; also recorded: inhibited verapamil-stimulated ATPase activity; Effect on stimulated ATPase ([3]; listed as SMU29-541): inhibitor; Effect on basal ATPase ([3]; listed as 541): did not significantly affect; also recorded: did not activate; Effect on basal ATPase ([3]; listed as SMU29-541): none
